Where a SMILES comes first, the peptide text is derived from it.
What was measured:
Growth Hormone secretion [1] = assay: Growth Hormone secretion in female mice after subcutaneous GRF analog; type: in vivo; conditions: female CD-1 mice; 10 μg/mouse subcutaneous; plasma 10 minutes after injection
Excerpt: (§1) CD-1 mice (female, weighting from 20 to 25 g) were obtained from Charles River Inc. Animals were used according to a protocol of the Animal Care Committee along with the principles of the Guide for the Care and Use of Experimental Animals of the Canadian Council on Animal Care. The animals were maintained on standard laboratory chow under a 12:12 light:dark cycle. They were kept in groups of 4 mice per cage.
At the day of the experiment, mice received a subcutaneous injection of GRF analog (10 μg/mouse dissolved in 20 mM sodium acetate (AcONa)+5% mannitol at pH 5). 10 minutes after injection, the mice were anesthezied with isolufrane. Blood samples (500 μl) were obtained by intra-cardiac puncture. Blood was placed into microtainer pre-treated with K3EDTA and immediately centrifuged at 13,000 RPM in a desktop centrifuge for 2 minutes. The plasma was collected and placed into a screwcap Eppendorf™ tube and quick frozen in liquid nitrogen. The samples were then kept at −80° C. until assayed. Determination of GH levels was performed as described below.
(§2) Rat and mouse plasma samples were vortexed carefully and centrifuged at 9,000 RPM for 2 min at 4° C. The dosage of GH levels was performed using the Rat/Mouse Growth Hormone ELISA kit from Millipore (Cat. # EZRMGH-45K). Sample supernatants were first diluted 20-fold with the GH ELISA assay buffer, and 10 μl of this dilution was added to the ELISA plate with 90 μl of GH EIA assay buffer. The remaining of the procedure was performed according to the manufacturer's instructions, and the data obtained were analyzed using GraphPad Prism™ software.
(§3) The GRF analogs described herein were tested for their ability to induce GH release in female mice and rats. […] The data are presented in Tables III (mice) and IV-V (rats).

Growth Hormone secretion [2] = assay: Growth Hormone secretion in female rats after subcutaneous GRF analog; type: in vivo; conditions: female Sprague-Dawley rats; 10 μg/rat subcutaneous; plasma 0-60 minutes
Excerpt: as §1, with “Sprague-Dawley rats” for “CD-1 mice”, “250” for “20”, “300” for “25”, “rats” for “mice”
The animals were anesthetized with isoflurane 2.5%. A mid-section opening was made in the neck to expose the carotid artery. The carotid artery was canulated with polypropylene tubing (PE-50) to allow blood withdrawal. After surgical preparation, rats received a subcutaneous injection of GRF analog (10 μg/rat dissolved in 20 mM AcONa+5% mannitol at pH 5). For pharmacodynamics studies, blood samples (400 μL) were collected from 4 to 8 animals per group per time point. Blood samples (400 μl) were collected via the carotid catheter at 0, 10, 20, 30, 45 and 60 minutes after drug injection. Blood was placed into microtainer pre-treated with K3EDTA and immediately centrifuged at 13,000 RPM in a desktop centrifuge for 2 minutes. The plasma was collected and placed into a screw cap Eppendorf™ and quick frozen in liquid nitrogen. The samples were then kept at −80° C. until assayed. Determination of GH levels was performed as described below.
as §2, §3

Row | Structure (SMILES) | GH levels 10 min (Growth Hormone secretion [1]) [ng/mL] | Mean AUC (GH Area Under the curve, GH concentration over time) (Growth Hormone secretion [2]) | Mean Cmax (ng/ml) of Growth Hormone secretion (Growth Hormone secretion [2]) [ng/mL]
1 | CC[C@H](C)[C@H](NC(=O)[C@H](C)NC(=O)[C@H](CC(=O)O)NC(=O)[C@@H](C)NC(=O)[C@@H](N)Cc1ccc(O)cc1)C(=O)N[C@@H](Cc1ccccc1)C(=O)N[C@H](C(=O)N[C@@H](CC(=O)O)C(=O)N[C@@H](CO)C(=O)N[C@@H](Cc1ccc(O)cc1)C(=O)N[C@@H](CCCNC(=N)N)C(=O)N[C@@H](CCCCN)C(=O)N[C@H](C(=O)N[C@@H](CC(C)C)C(=O)N[C@@H](C)C(=O)N[C@@H](CCC(N)=O)C(=O)N[C@@H](CC(C)C)C(=O)N[C@@H](CCCCN)C(=O)N[C@@H](C)C(=O)N[C@@H](CCCNC(=N)N)C(=O)N[C@@H](CCC(N)=O)C(=O)N[C@@H](CC(=O)O)C(=O)N[C@@H](CC(C)C)C(=O)N[C@@H](CC(C)C)C(=O)N[C@@H](C)C(=O)N[C@@H](CCCNC(=N)N)C(=O)N[C@@H](C)C(=O)N[C@@H](C)C(=O)N[C@@H](CCCNC(=N)N)C(=O)N[C@@H](C)C(=O)N[C@@H](C)C(=O)N[C@@H](CCCNC(=N)N)C(N)=O)C(C)C)[C@@H](C)O [SEQ ID NO: 30, Y-a-DAIFTDSYRKVLAQLKARQDLLARAARAAR-NH2] (HELM PEPTIDE1{Y.[dA].D.A.I.F.T.D.S.Y.R.K.V.L.A.Q.L.K.A.R.Q.D.L.L.A.R.A.A.R.A.A.R.[am]}$$$$V2.0) | 493.3 | 12282 | 664.1
2 | CC/C=C/CC(=O)N[C@@H](Cc1ccc(O)cc1)C(=O)N[C@@H](C)C(=O)N[C@@H](CC(=O)O)C(=O)N[C@@H](C)C(=O)N[C@H](C(=O)N[C@@H](Cc1ccccc1)C(=O)N[C@H](C(=O)N[C@@H](CC(=O)O)C(=O)N[C@@H](CO)C(=O)N[C@@H](Cc1ccc(O)cc1)C(=O)N[C@@H](CCCNC(=N)N)C(=O)N[C@@H](CCCCN)C(=O)N[C@H](C(=O)N[C@@H](CC(C)C)C(=O)N[C@@H](C)C(=O)N[C@@H](CCC(N)=O)C(=O)N[C@@H](CC(C)C)C(=O)N[C@@H](CCCCN)C(=O)N[C@@H](C)C(=O)N[C@@H](CCCNC(=N)N)C(=O)N[C@@H](CCC(N)=O)C(=O)N[C@@H](CC(=O)O)C(=O)N[C@H](C(=O)N[C@@H](CC(C)C)C(=O)N[C@@H](C)C(=O)N[C@@H](CCCNC(=N)N)C(=O)N[C@@H](C)C(=O)N[C@@H](C)C(=O)N[C@@H](CCCNC(=N)N)C(=O)N[C@@H](C)C(=O)N[C@@H](C)C(=O)N[C@@H](CCCNC(=N)N)C(N)=O)[C@@H](C)CC)C(C)C)[C@@H](C)O)[C@@H](C)CC [SEQ ID NO: 31, Trans-3-hexenoyl-YADAIFTDSYRKVLAQLKARQDILARAARAAR-NH2] (HELM PEPTIDE1{[CC/C=C/CC(=O)[*:2]].Y.A.D.A.I.F.T.D.S.Y.R.K.V.L.A.Q.L.K.A.R.Q.D.I.L.A.R.A.A.R.A.A.R.[am]}$$$$V2.0) | 563.6 | 9093 | 459.9
3 | CC/C=C/CC(=O)N[C@@H](Cc1ccc(O)cc1)C(=O)N[C@@H](C)C(=O)N[C@@H](CC(=O)O)C(=O)N[C@@H](C)C(=O)N[C@H](C(=O)N[C@@H](Cc1ccccc1)C(=O)N[C@H](C(=O)N[C@@H](CC(=O)O)C(=O)N[C@@H](CO)C(=O)N[C@@H](Cc1ccc(O)cc1)C(=O)N[C@@H](CCCNC(=N)N)C(=O)N[C@@H](CCCCN)C(=O)N[C@H](C(=O)N[C@@H](CC(C)C)C(=O)N[C@@H](C)C(=O)N[C@@H](CCC(N)=O)C(=O)N[C@@H](CC(C)C)C(=O)N[C@@H](CO)C(=O)N[C@@H](C)C(=O)N[C@@H](CCCNC(=N)N)C(=O)N[C@@H](CCC(N)=O)C(=O)N[C@@H](CC(=O)O)C(=O)N[C@H](C(=O)N[C@@H](CCSC)C(=O)N[C@@H](CO)C(=O)N[C@@H](CCCNC(=N)N)C(N)=O)[C@@H](C)CC)C(C)C)[C@@H](C)O)[C@@H](C)CC [SEQ ID NO: 44, Trans-3-hexenoyl-YADAIFTDSYRKVLAQLSARQDIMSR-NH2] (HELM PEPTIDE1{[CC/C=C/CC(=O)[*:2]].Y.A.D.A.I.F.T.D.S.Y.R.K.V.L.A.Q.L.S.A.R.Q.D.I.M.S.R.[am]}$$$$V2.0) | 15.2 | 984 | 44.2
4 | CC/C=C/CC(=O)N[C@@H](Cc1ccc(O)cc1)C(=O)N[C@@H](C)C(=O)N[C@@H](CC(=O)O)C(=O)N[C@@H](C)C(=O)N[C@H](C(=O)N[C@@H](Cc1ccccc1)C(=O)N[C@H](C(=O)N[C@@H](CC(=O)O)C(=O)N[C@@H](CO)C(=O)N[C@@H](Cc1ccc(O)cc1)C(=O)N[C@@H](CCCNC(=N)N)C(=O)N[C@@H](CCCCN)C(=O)N[C@H](C(=O)N[C@@H](CC(C)C)C(=O)N[C@@H](C)C(=O)N[C@@H](CCC(N)=O)C(=O)N[C@@H](CC(C)C)C(=O)N[C@@H](CO)C(=O)N[C@@H](C)C(=O)N[C@@H](CCCNC(=N)N)C(=O)N[C@@H](CCC(N)=O)C(=O)N[C@@H](CC(=O)O)C(=O)N[C@H](C(=O)N[C@@H](CC(C)C)C(=O)N[C@@H](C)C(=O)N[C@@H](CCCNC(=N)N)C(N)=O)[C@@H](C)CC)C(C)C)[C@@H](C)O)[C@@H](C)CC [SEQ ID NO: 45, Trans-3-hexenoyl-YADAIFTDSYRKVLAQLSARQDILAR-NH2] (HELM PEPTIDE1{[CC/C=C/CC(=O)[*:2]].Y.A.D.A.I.F.T.D.S.Y.R.K.V.L.A.Q.L.S.A.R.Q.D.I.L.A.R.[am]}$$$$V2.0) | 102.1 | 1953 | 78.8
5 | CC/C=C/CC(=O)N[C@@H](Cc1ccc(O)cc1)C(=O)N[C@@H](C)C(=O)N[C@@H](CC(=O)O)C(=O)N[C@@H](C)C(=O)N[C@H](C(=O)N[C@@H](Cc1ccccc1)C(=O)N[C@H](C(=O)N[C@@H](CC(=O)O)C(=O)N[C@@H](CO)C(=O)N[C@@H](Cc1ccc(O)cc1)C(=O)N[C@@H](CCCNC(=N)N)C(=O)N[C@@H](CCCCN)C(=O)N[C@H](C(=O)N[C@@H](CC(C)C)C(=O)N[C@@H](C)C(=O)N[C@@H](CCC(N)=O)C(=O)N[C@@H](CC(C)C)C(=O)N[C@@H](CO)C(=O)N[C@@H](C)C(=O)N[C@@H](CCCNC(=N)N)C(=O)N[C@@H](CCC(N)=O)C(=O)N[C@@H](CC(=O)O)C(=O)N[C@H](C(=O)N[C@@H](CC(C)C)C(=O)N[C@@H](CO)C(=O)N[C@H](CCCNC(=N)N)C(N)=O)[C@@H](C)CC)C(C)C)[C@@H](C)O)[C@@H](C)CC [SEQ ID NO: 46, Trans-3-hexenoyl-YADAIFTDSYRKVLAQLSARQDILS-r-NH2] (HELM PEPTIDE1{[CC/C=C/CC(=O)[*:2]].Y.A.D.A.I.F.T.D.S.Y.R.K.V.L.A.Q.L.S.A.R.Q.D.I.L.S.[dR].[am]}$$$$V2.0) | 10.6 | 1453 | 57.3
